Experimental data as given in paper PMC10241923 (British Journal of Cancer, 2023).

Target: CDK9 (Homo sapiens, UniProt P50750)
Assay: CeTSA isothermal dose-response at […] °C in intact LNCaP cells, immunoblot
Format: cell-based

CDK9, sequence (P50750 whole entry): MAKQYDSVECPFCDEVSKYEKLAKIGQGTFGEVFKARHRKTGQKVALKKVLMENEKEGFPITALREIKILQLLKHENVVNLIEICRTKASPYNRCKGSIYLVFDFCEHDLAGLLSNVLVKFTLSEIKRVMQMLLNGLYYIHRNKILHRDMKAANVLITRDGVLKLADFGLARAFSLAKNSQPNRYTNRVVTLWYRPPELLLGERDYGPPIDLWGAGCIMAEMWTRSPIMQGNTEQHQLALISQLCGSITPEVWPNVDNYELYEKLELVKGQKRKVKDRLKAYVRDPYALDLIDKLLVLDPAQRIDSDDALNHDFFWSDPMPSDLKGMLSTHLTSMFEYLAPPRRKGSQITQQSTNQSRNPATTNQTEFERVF

Question: `CC(C)c1cnn2c(NCc3ccccc3)cc(NC[C@H]3CCNC[C@@H]3O)nc12` [CT7001] was tested. Which “CeTSA isothermal dose-response at 54 °C in intact LNCaP cells, immunoblot” value did it give?
Answer: has a degree of engagement also with CDK2 and CDK9 at higher concentrations
